Source: US20060293294A1, “Method for treatment or prevention of androgen deficiency” (HORMOS MEDICAL CORPORATION, priority 2004, published 2006)

Test system: healthy, elderly men
Assay: Phase I repeated dose study 101-50202: serum hormone concentrations before and during 28-day treatment
Assay type: in vivo, human
Conditions: for increase in the mean total testosterone compared to the baseline concentration: 300 mg dose
From the text: Fispemifene has been studied in two phase I studies in humans—in a single dose and a repeated dose study. Effect of fispemifene on hormone levels was one main focus of the repeated dose study. The phase I repeated dose study (number 101-50202) was a randomized, double-blind, placebo-controlled 28-day dose-escalation study performed in 32 healthy, elderly men, aged 50-68 years. The main objective of the study was to investigate the tolerability, safety and pharmacokinetics of fispemifene after repeated oral doses, but the study focused also on the effects of fispemifene on serum testosterone, estradiol, and other relevant hormones. The fispemifene doses 10, 30, 100 and 300 mg per day and placebo were administered once every morning as capsules containing 10 mg or 100 mg of fispemifene, or placebo. The dose was escalated to the next higher dose level, if the previous dose had been safe and well tolerated evaluated by the laboratory safety determinations and ultrasound of mammagy glands.
The variables for safety and tolerability were adverse events, vital signs, 12-lead ECG, clinical laboratory evaluations, physical examination, ultrasound examinations (mammary glands) and inhibin b. For pharmacokinetics, the concentrations of fispemifene and its metabolite(s) were to be evaluated. For pharmacodynamics, serum concentrations of FSH, LH, estradiol, testosterone, SHBG, prolactin, aldosterone, cortisol and TSH before and during treatment were measured and compared with the concentrations in the placebo-group.

## OCCOCCOc1ccc(/C(=C(/CCCl)c2ccccc2)c2ccccc2)cc1 [Fispemifene, (Z)-2-{2-[4-(4-Chloro-1,2-diphenylbut-1-enyl)phenoxy]ethoxy}ethanol]
10 mg per day oral, Baseline
  Serum total testosterone concentration, Mean: 19.33 nmol/L
10 mg per day oral, Day 8
  Serum total testosterone concentration, Mean: 19.83 nmol/L
10 mg per day oral, Day 15
  Serum total testosterone concentration, Mean: 20.50 nmol/L
10 mg per day oral, Day 22
  Serum total testosterone concentration, Mean: 22.00 nmol/L
10 mg per day oral, Day 28
  Serum total testosterone concentration, Mean: 17.40 nmol/L
30 mg per day oral, Baseline
  Serum total testosterone concentration, Mean: 15.00 nmol/L
30 mg per day oral, Day 8
  Serum total testosterone concentration, Mean: 14.40 nmol/L
30 mg per day oral, Day 15
  Serum total testosterone concentration, Mean: 15.00 nmol/L
30 mg per day oral, Day 22
  Serum total testosterone concentration, Mean: 15.80 nmol/L
30 mg per day oral, Day 28
  Serum total testosterone concentration, Mean: 14.80 nmol/L
100 mg dose, 28 days of treatment
  increase of the mean total testosterone: about 32%
100 mg or 300 mg, 28-day treatment
  subjects in whom an increase in testosterone serum concentration was seen: all the subjects
100 mg per day oral, Baseline
  Serum total testosterone concentration, Mean: 14.27 nmol/L
100 mg per day oral, Day 8
  Serum total testosterone concentration, Mean: 18.67 nmol/L
100 mg per day oral, Day 15
  Serum total testosterone concentration, Mean: 19.00 nmol/L
100 mg per day oral, Day 22
  Serum total testosterone concentration, Mean: 17.83 nmol/L
100 mg per day oral, Day 28
  Serum total testosterone concentration, Mean: 18.83 nmol/L
28 days of treatment
  increase in the mean total testosterone compared to the baseline concentration: 75%
28 days of treatment, listed as fispemifene
  increase in the mean total testosterone compared to the baseline concentration: about 75%
300 mg per day oral, Baseline
  Serum total testosterone concentration, Mean: 15.67 nmol/L
300 mg per day oral, Day 8
  Serum total testosterone concentration, Mean: 23.17 nmol/L
300 mg per day oral, Day 15
  Serum total testosterone concentration, Mean: 27.00 nmol/L
300 mg per day oral, Day 22
  Serum total testosterone concentration, Mean: 27.83 nmol/L
300 mg per day oral, Day 28
  Serum total testosterone concentration, Mean: 27.50 nmol/L
During the 28 days of treatment
  serum concentrations of testosterone, FSH, LH, and SHBG: increased
Highest dose (300 mg), six men
  men with serum testosterone level above the upper limit of normal range (33 nmol/L) during treatment: Two out of six men
Within 28 days from the start of the treatment
  change in the serum testosterone concentration: clinically and statistically significant and dose dependent increase
